Measured values: PMC11524583, “Neurons enhance blood–brain barrier function via upregulating claudin-5 and VE-cadherin expression due to glial cell line-derived neurotrophic factor secretion” (eLife, 2024)
Where “and” joins values, the source holds several entries; their conditions need not be identical. Identical values can stand only once. Entries after “also recorded” stand apart in the source; their conditions may differ. Like-named read-outs stand apart in the source and are kept apart here. Marks after values point to notes of the source that are not given here.

Assays:
[1] = tested on: VE-cadherin; experiment: Western blot of VE-cadherin expression in hCMEC/D3 cells; format: cell-based, Homo sapiens; conditions: for GDNF-induced VE-cadherin expression: 200 pg/ml GDNF, 3 μM SPP-86, 5 μM PP2, 3 μM LY294002, 2 μM U0126, 5 μM SP600125, 2 μM SB203580; for VE-cadherin/β-actin Relative Expression, Mean / VE-cadherin/β-actin Relative Expression: Figure 2G; for VE-cadherin/β-actin Relative Expression, Mean: Con = 1.000; for VE-cadherin/β-actin Relative Expression: relative to Con, single replicates
Method: (§1) Whole-cell and tissue lysates, nucleoprotein, and cytoplasmic protein were prepared using RIPA Lysis Buffer (Beyotime, Shanghai, China) as the described method ([Wu et al., 2021]). Proteins were separated through sodium dodecyl sulfate–polyacrylamide gel electrophoresis and transferred onto nitrocellulose or polyvinylidene difluoride membranes. The membranes were blocked with 5% skim milk and incubated with corresponding primary antibodies at 4°C overnight. After being washed with Tris-buffered saline Tween buffer, the membranes were incubated with secondary antibodies (Cell Signaling Technology, MA, USA) at 1:3000 dilution: Anti-mouse IgG, HRP-linked Antibody (#7076), Anti-rabbit IgG, HRP-linked Antibody (#7074). Protein levels were visualized using a highly sensitive ECL western blotting substrate and a gel imaging system (Tanon Science & Technology, Shanghai, China).
(§2) CM of U251 cells (U-CM), SH-SY5Y cells (S-CM), or co-culture of U251 and SH-SY5Y cells (US-CM) was prepared. U251 cells were seeded at the top of the insert membrane and suspended on 6-well plates seeded with differentiated SH-SY5Y cells to co-culture U251 cells with SH-SY5Y cells. The medium was collected every 24 hr. The CMs were subsequently used for hCMEC/D3 cell culture after filtrating with 0.2 μm filters for 144 hr. The levels of GDNF, bFGF, IGF-1, and TGF-β in CMs were measured using corresponding ELISA kits according to the manufacturers’ instructions.
(§3) Exogenous and endogenous GDNF in the medium was neutralized with anti-GDNF antibody (#AF-212-NA, R&D system, Minneapolis, MN, USA). 0.25, 0.5, and 1.0 μg/ml anti-GDNF antibody was added into the US-CM or medium containing 200 pg/ml GDNF, and then the medium was preincubated at 4°C for 1 hr. The hCMEC/D3 cells were incubated with 200 pg/ml GDNF or US-CM containing anti-GDNF antibody or not for 6 days, and then cell lysate was collected for western blot. The medium was replaced every 24 hr.
(§4) Here, hCMEC/D3 cells were plated in the plates or culture dishes at 6 × 10^4 cells/cm^2 and transfected with 10 nM of negative control or human FOXO1, ETS1, and CDH5 siRNA (Tsingke Biotechnology, Beijing, China) for 12 hr using Lipofectamine 3000 (Invitrogen, Carlsbad, CA, USA) reagent according to the manufacturer’s instructions. Cells were then incubated with a medium containing GDNF for 72 hr.

[2] = tested on: claudin-5; experiment: Western blot of claudin-5 expression in hCMEC/D3 cells; format: cell-based, Homo sapiens; conditions: for GDNF-induced claudin-5 expression: 200 pg/ml GDNF, 3 μM SPP-86, 5 μM PP2, 3 μM LY294002, 2 μM U0126, 5 μM SP600125, 2 μM SB203580; for Claudin-5/β-actin Relative Expression, Mean / Claudin-5/β-actin Relative Expression: Figure 2G; for Claudin-5/β-actin Relative Expression, Mean: Con = 1.000; for Claudin-5/β-actin Relative Expression: relative to Con, single replicates
Method: as §1, §2, §3, §4
The plasmids encoding FOXO1 (EX-Z7404-M02) were constructed by GeneCopoeia (Rockville, MD, USA). The hCMEC/D3 cells were plated in plates or dishes at 6 × 10^4 cells/cm^2. They were subsequently transfected with 1 µg of negative control or plasmids encoding FOXO1 6 hr using Lipofectamine 3000 reagent according to the manufacturer’s instructions. Transfected cells were then incubated with the medium containing GDNF for 72 hr.

[3] = in situ brain perfusion in rodents; published permeability multiplied by VSA 150 cm^2/g; ref Summerfield et al., 2007; cited from earlier work
[4] = in vitro; conditions: human, Papp, Mono, apical to basolateral, 30 min, 37°C, day 6; mean ± SEM, four biological replicates
[5] = in vitro; conditions: human
[6] = unbound fraction in brain, cited from earlier work
[7] = tested on: hCMEC/D3 mono-culture BBB model; experiment: In vitro BBB permeability study (Papp), hCMEC/D3 mono-culture BBB model
[8] = tested on: triple co-culture BBB model (hCMEC/D3, U251 and SH-SY5Y cells); experiment: In vitro BBB permeability study (Papp), triple co-culture BBB model
[9] = tested on: hCMEC/D3 mono-culture BBB model; conditions: human
[10] = tested on: hCMEC/D3 mono-culture BBB model; experiment: TEER of hCMEC/D3 mono-culture BBB model; format: cell-based, Homo sapiens; conditions: hCMEC/D3 mono-culture, 200 pg/ml GDNF, day 6; 3 μM SPP-86 or 5 μM PP2
[11] = tested on: triple co-culture BBB model (hCMEC/D3, U251 and SH-SY5Y cells); experiment: TEER of triple co-culture BBB model; format: cell-based, Homo sapiens; conditions: for TEER: Figure 2Q, group Triple+SPP, individual replicates, listed as SPP
Method: The establishment process of the triple co-culture model is illustrated in Figure 9. SH-SY5Y cells were seeded at a density of 4.5 × 10^4 cells/cm^2 in plates and differentiated with 10 μM retinoic acid (Sigma-Aldrich, St. Louis, MO, USA) for 72 hr. The differentiated SH-SY5Y cells were cultured in the fresh DMEM/F12 medium containing 10% FBS. U251 cells were seeded at 2 × 10^4 cells/cm^2 on the bottom of Transwell inserts (PET, 0.4 µm pore size, SPL Life Sciences, Pocheon, Korea) coated with rat-tail collagen (Corning Inc, Corning, NY, USA). Next, the inserts were suspended in plate wells containing the culture medium after 5 hr of incubation. After 24 hr of incubation, hCMEC/D3 cells were seeded on the apical side of the inserts at 3 × 10^4 cells/cm^2 and cultured for another 48 hr. Then, the inserts seeded with U251 and hCMEC/D3 cells were suspended in plates seeded with differentiated SH-SY5Y cells and co-cultured for another 6 days. The culture medium was replaced every 24 hr. TEER was periodically measured using a Millicell-ERS (MERS00002) instrument (Millipore, Billerica MA, USA) to monitor cell confluence and development of TJs.

[12] = hCMEC/D3 cells, anti-GDNF antibody 0.25, 0.5, 1.0 μg/ml
[13] = hCMEC/D3 cells, US-CM, 3 μM SPP-86, 5 μM PP2, 3 μM LY294002, 2 μM U0126, anti-GDNF antibody 0.25, 0.5, 1.0 μg/ml

Q: Which “GDNF-induced VE-cadherin expression” value [1, 12] does the source give for `C[S+]([O-])c1ccc(-c2nc(-c3ccncc3)c(-c3ccc(F)cc3)[nH]2)cc1` (centres unmarked) [SB203580, reference compound] here?
A: Its value is “almost no effect”.

Q: And the “GDNF-induced claudin-5 expression” value [2, 12]?
A: Its value is “almost no effect”.

Q: Which results are given for TGF-β?
A: VE-cadherin/β-actin Relative Expression, Mean ([1]; 0.5 ng): 1.041; VE-cadherin/β-actin Relative Expression ([1]; 0.5 ng): 1.060 and 0.953 and 1.005 and 1.147; VE-cadherin/β-actin Relative Expression, Mean ([1]; 2 ng): 1.010; VE-cadherin/β-actin Relative Expression ([1]; 2 ng): 0.849 and 1.087 and 1.125 and 0.979; VE-cadherin/β-actin Relative Expression, Mean ([1]; 5 ng): 0.834; VE-cadherin/β-actin Relative Expression ([1]; 5 ng): 0.847 and 0.832 and 0.952 and 0.705; Claudin-5/β-actin Relative Expression, Mean ([2]; 0.5 ng): 0.967; Claudin-5/β-actin Relative Expression ([2]; 0.5 ng): 0.910 and 1.017 and 1.003 and 0.937; Claudin-5/β-actin Relative Expression, Mean ([2]; 2 ng): 0.982; Claudin-5/β-actin Relative Expression ([2]; 2 ng): 0.870 and 1.019 and 1.090 and 0.947; Claudin-5/β-actin Relative Expression, Mean ([2]; 5 ng): 0.716; Claudin-5/β-actin Relative Expression ([2]; 5 ng): 0.653 and 0.618 and 0.959 and 0.634; claudin-5 expression ([2]; hCMEC/D3 cells, high level (5 ng/ml) of TGF-β): slightly downregulated

Q: For `Cc1ncc2n1-c1ccc(Cl)cc1C(c1ccccc1F)=NC2` [Midazolam], which PSObs [3] is on record?
A: Its PSObs is 2727.00^† μl/min/g.

Q: And the Papp A→B [4]?
A: The Papp A→B was 25.3 ± 1 ×10⁻⁶ cm/s.

Q: And the Papp A→B ([5]; Papp Mean, Triple co-culture BBB model, mean of 4 replicates)?
A: Its Papp A→B is 19.1 ×10⁻⁶ cm/s.

Q: And the Papp A→B ([5]; Papp, Triple, apical to basolateral, 30 min, 37°C, day 6, mean ± SEM, four biological replicates)?
A: The Papp A→B was 19.1 ± 0.24 ×10⁻⁶ cm/s.

Q: And the “fu, brain” value ([6]; ref Kodaira et al., 2011)?
A: The value was 0.045^‡ ‡.

Q: And the PS ([7]; Mono-culture BBB Model, PS worked out from mean Papp)?
A: The PS was 5060.00 µL/min/g.

Q: And the PS ([8]; Triple co-culture BBB model, PS worked out from mean Papp)?
A: The PS was 3818.00 µL/min/g.

Q: And the “PSPre, Mono” value [9]?
A: The value was 5060.00 µL/min/g.

Q: With `CC(C)n1nc(C#Cc2ccccc2)c2c(N)ncnc21` [SPP-86] as the compound, how does the “GDNF-increased TEER values, effect of inhibitor” value [10] read?
A: The value was “almost abolished”.

Q: What about the “GDNF-induced VE-cadherin expression” value [1, 12] of the same compound?
A: Its value is “markedly attenuated; also recorded: significantly suppressed”.

Q: And the “US-CM-induced VE-cadherin expression” value [1, 13]?
A: The value was “markedly attenuated; also recorded: markedly reversed”.

Q: What about the “GDNF-decreased permeability of fluorescein and FITC-Dex, effect of inhibitor” value ([7]; hCMEC/D3 mono-culture, 200 pg/ml GDNF, 3 μM SPP-86 or 5 μM PP2) of the same compound?
A: Its value is “almost abolished”.

Q: What about the “GDNF-induced claudin-5 expression” value [2, 12] of the same compound?
A: The value was “markedly attenuated; also recorded: significantly suppressed”.

Q: What about the “US-CM-induced claudin-5 expression” value [2, 13] of the same compound?
A: The value was “markedly attenuated; also recorded: markedly reversed”.

Q: And the TEER ([11]; Day3)?
A: The TEER was 56.76 Ω·cm2 and 57.75 Ω·cm2 and 55.77 Ω·cm2 and 59.4 Ω·cm2.

Q: What about the TEER ([11]; Day4) of the same compound?
A: Its TEER is 63.03 Ω·cm2 and 62.37 Ω·cm2 and 61.38 Ω·cm2 and 59.4 Ω·cm2.

Q: And the TEER ([11]; Day5)?
A: The TEER was 71.94 Ω·cm2 and 75.24 Ω·cm2 and 74.25 Ω·cm2 and 72.27 Ω·cm2.

Q: What about the TEER ([11]; Day6) of the same compound?
A: The TEER was 75.24 Ω·cm2 and 76.56 Ω·cm2 and 75.9 Ω·cm2 and 74.25 Ω·cm2.

Q: And the “increased TEER values in the triple co-culture BBB model, effect of inhibitor” value ([11]; day 6, 3 μM SPP-86 or 5 μM PP2)?
A: Its value is “completely reversed”.

Q: And the “decreased permeability of fluorescein and FITC-Dex in the triple co-culture BBB model, effect of inhibitor” value ([8]; 3 μM SPP-86 or 5 μM PP2)?
A: The value was “completely reversed”.

Q: What does the source list for `Oc1c2ccccc2c2c3c(cccc13)N=N2` [SP600125, reference compound]?
A: GDNF-induced VE-cadherin expression [1, 12]: almost no effect; GDNF-induced claudin-5 expression [2, 12]: almost no effect

Q: Which “fu, brain” value ([6]; ref Summerfield et al., 2007) does the source give for `Nc1nnc(-c2cccc(Cl)c2Cl)c(N)n1` [Lamotrigine] here?
A: The value was 0.273^†.
